# Assay results: patent publication US5051403A (priority 1989, dated 1991)
# Several values for one entry are separate records, joined by “and”; a condition that tells them apart may be missing. Identical values can stand only once. Bridge positions count the residues as written; N and C are the ends. Square brackets hold non-standard residues; d marks the D form. Ends that are not written are not given here. Peptide text beside a SMILES is read from it. * marks the point of attachment. Hyp = O=C(O)[C@@H]1C[C@@H](O)CN1; Acm = CC(=O)NC*
# Target: OCT binding sites, elasmobranch electric organ synaptosomes (Diplobatis ommata, UniProt P56698)
# Test: biochemical
# Set-up: species or system Ommata dyscopyge (marine electric ray)
# Settings: pKi
# Sequence of OCT binding sites, elasmobranch electric organ synaptosomes (P56698 whole entry, looked up): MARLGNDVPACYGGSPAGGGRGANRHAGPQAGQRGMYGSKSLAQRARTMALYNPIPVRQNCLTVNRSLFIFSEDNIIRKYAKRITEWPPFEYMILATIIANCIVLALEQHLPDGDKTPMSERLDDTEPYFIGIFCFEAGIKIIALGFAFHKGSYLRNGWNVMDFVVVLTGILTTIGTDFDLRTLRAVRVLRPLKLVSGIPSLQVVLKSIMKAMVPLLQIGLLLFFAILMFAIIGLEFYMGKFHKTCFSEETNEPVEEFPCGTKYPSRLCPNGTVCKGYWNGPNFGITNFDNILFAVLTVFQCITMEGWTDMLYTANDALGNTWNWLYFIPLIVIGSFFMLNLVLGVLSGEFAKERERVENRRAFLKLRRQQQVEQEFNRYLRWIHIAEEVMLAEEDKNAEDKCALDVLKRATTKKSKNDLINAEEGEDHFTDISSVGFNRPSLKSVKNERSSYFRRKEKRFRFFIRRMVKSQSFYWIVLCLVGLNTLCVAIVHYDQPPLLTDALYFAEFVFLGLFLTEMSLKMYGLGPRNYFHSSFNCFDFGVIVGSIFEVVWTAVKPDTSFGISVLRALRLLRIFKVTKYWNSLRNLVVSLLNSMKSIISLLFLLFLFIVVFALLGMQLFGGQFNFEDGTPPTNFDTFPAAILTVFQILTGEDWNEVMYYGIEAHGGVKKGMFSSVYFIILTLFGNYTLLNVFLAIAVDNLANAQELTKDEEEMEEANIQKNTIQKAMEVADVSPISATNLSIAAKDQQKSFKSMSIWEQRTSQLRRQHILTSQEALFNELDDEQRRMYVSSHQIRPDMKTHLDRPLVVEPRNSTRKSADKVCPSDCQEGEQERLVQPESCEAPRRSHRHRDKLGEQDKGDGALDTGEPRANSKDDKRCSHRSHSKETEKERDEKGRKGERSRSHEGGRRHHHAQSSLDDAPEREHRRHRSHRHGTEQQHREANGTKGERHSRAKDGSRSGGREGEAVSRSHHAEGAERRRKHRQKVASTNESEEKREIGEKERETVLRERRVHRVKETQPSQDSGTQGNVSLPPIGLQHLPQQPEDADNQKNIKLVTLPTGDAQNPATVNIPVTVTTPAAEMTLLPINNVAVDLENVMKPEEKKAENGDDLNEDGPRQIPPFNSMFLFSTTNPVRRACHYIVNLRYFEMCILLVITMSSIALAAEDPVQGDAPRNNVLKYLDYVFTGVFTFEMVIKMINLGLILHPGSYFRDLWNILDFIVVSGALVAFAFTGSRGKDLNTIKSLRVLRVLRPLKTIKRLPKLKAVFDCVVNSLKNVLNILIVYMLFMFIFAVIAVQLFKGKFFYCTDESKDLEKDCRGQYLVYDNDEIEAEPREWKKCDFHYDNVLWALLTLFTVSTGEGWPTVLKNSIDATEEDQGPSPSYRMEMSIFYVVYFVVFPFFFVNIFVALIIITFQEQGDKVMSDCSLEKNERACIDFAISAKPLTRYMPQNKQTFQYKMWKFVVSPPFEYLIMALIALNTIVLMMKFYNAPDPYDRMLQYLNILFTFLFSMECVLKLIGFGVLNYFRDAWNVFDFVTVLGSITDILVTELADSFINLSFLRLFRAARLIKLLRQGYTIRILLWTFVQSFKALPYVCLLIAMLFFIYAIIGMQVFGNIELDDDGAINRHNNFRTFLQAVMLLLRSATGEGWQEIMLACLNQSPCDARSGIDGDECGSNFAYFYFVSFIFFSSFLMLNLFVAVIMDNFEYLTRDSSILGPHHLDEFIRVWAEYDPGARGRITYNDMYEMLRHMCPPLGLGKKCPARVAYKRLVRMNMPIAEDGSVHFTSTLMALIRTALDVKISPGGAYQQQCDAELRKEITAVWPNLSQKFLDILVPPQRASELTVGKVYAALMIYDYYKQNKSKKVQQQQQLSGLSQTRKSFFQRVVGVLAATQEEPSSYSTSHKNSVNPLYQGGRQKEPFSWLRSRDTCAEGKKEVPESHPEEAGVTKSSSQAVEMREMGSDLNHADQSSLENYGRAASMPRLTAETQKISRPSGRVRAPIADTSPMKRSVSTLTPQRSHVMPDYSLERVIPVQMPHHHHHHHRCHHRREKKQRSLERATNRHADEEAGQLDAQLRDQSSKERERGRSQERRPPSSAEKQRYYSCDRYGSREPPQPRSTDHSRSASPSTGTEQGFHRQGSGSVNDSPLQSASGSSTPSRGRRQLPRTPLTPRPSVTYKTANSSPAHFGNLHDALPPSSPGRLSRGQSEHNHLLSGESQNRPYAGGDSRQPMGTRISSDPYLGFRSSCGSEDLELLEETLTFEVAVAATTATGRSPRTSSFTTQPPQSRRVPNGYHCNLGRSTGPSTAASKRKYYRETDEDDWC
row,Compound,Ki
1,CSCC[C@@H]1NC(=O)[C@H](CC(C)C)NC(=O)[C@H](CCCNC(=N)N)NC(=O)[C@H](CO)NC(=O)[C@@H](N)CSSC[C@@H](C(N)=O)NC(=O)[C@H](CO)NC(=O)CNC(=O)[C@H]([C@@H](C)O)NC(=O)[C@H](CSCNC(C)=O)NC(=O)[C@H](CSCNC(C)=O)NC(=O)[C@H](CC(=O)O)NC(=O)[C@H](Cc2ccc(O)cc2)NC1=O [MVIIA 161] (H-CSRLMYDC(Acm)C(Acm)TGSC-NH2; disulfide 1-13),> 1000 µM
2,AKGKGAKASR-NH2 [MVIIA 174],< 1 µM and 0.525 µM
3,CSCC[C@@H]1NC(=O)[C@H](CC(C)C)NC(=O)[C@H](CCCNC(=N)N)NC(=O)[C@H](CO)NC(=O)[C@H](C)NC(=O)[C@H](CCCCN)NC(=O)[C@H](C)NC(=O)CNC(=O)[C@H](CCCCN)NC(=O)CNC(=O)[C@H](CCCCN)NC(=O)[C@@H](N)CSSC[C@@H](C(N)=O)NC(=O)[C@H](C)NC(=O)[C@H](CC(=O)O)NC(=O)[C@H](Cc2ccc(O)cc2)NC1=O [MVIIA 171] (H-CKGKGAKASRLMYDAC-NH2; disulfide 1-16),4.68 µM
4,C[C@@H]1NC(=O)CNC(=O)[C@H](CCCCN)NC(=O)CNC(=O)[C@H](CCCCN)NC(=O)[C@@H](N)CSSC[C@@H](C(N)=O)NC(=O)[C@H](CCCCN)NC(=O)CNC(=O)[C@H](CO)NC(=O)[C@H](CCCNC(=N)N)NC(=O)[C@H](C)NC(=O)[C@H](C)NC(=O)[C@H](CCCCN)NC1=O [MVIIA 175] (H-CKGKGAKAARSGKC-NH2; disulfide 1-14),3.63 µM
5,CC(=O)NCSC[C@@H]1NC(=O)[C@H](CO)NC(=O)CNC(=O)[C@H]([C@@H](C)O)NC(=O)[C@H](CSCNC(C)=O)NC(=O)[C@@H](N)CSSC[C@@H](C(N)=O)NC(=O)[C@H](CCCCN)NC(=O)CNC(=O)[C@H](CO)NC(=O)[C@H](CCCNC(=N)N)NC1=O [MVIIA 160],120 µM
6,CSCC[C@@H]1NC(=O)[C@H](CC(C)C)NC(=O)[C@H](CCCNC(=N)N)NC(=O)[C@H](CO)NC(=O)[C@H](CSCNC(C)=O)NC(=O)[C@H](CCCCN)NC(=O)[C@H](C)NC(=O)CNC(=O)[C@H](CCCCN)NC(=O)CNC(=O)[C@H](CCCCN)NC(=O)[C@@H](N)CSSC[C@@H](C(N)=O)NC(=O)[C@H](CSCNC(C)=O)NC(=O)[C@H](CC(=O)O)NC(=O)[C@H](Cc2ccc(O)cc2)NC1=O [MVIIA 163],219 µM
7,C[C@@H]1NC(=O)[C@H](C)NC(=O)[C@H](CCCCN)NC(=O)[C@H](CO)NC(=O)CNC(=O)[C@H](CCCCN)NC(=O)[C@H](CO)NC(=O)[C@H](CCCCN)NC(=O)[C@@H](N)CSSC[C@@H](C(N)=O)NC(=O)[C@H](CCCCN)NC(=O)CNC(=O)[C@H](CO)NC(=O)[C@H](CCCNC(=N)N)NC1=O [MVIIA 176] (H-CKSKGSKAARSGKC-NH2; disulfide 1-14),1.82 µM
8,CSCC[C@@H]1NC(=O)[C@H](CC(C)C)NC(=O)[C@H](CCCNC(=N)N)NC(=O)[C@H](CO)NC(=O)[C@@H]2CSSC[C@H](NC(=O)[C@H](CC(=O)O)NC(=O)[C@H](Cc3ccc(O)cc3)NC1=O)C(=O)N[C@H](C(N)=O)CSSC[C@H](N)C(=O)N[C@@H](CCCCN)C(=O)NCC(=O)N[C@@H](CCCCN)C(=O)NCC(=O)N[C@@H](C)C(=O)N[C@@H](CCCCN)C(=O)N2 [MVIIA 172],20.9 µM
9,C[C@@H]1NC(=O)[C@H](C)NC(=O)[C@H](CO)NC(=O)[C@H](CO)NC(=O)CNC(=O)[C@@H]2C[C@@H](O)CN2C(=O)[C@H](CO)NC(=O)[C@H](CCCCN)NC(=O)[C@@H](N)CSSC[C@@H](C(=O)N[C@@H](Cc2ccc(O)cc2)C(N)=O)NC(=O)[C@H](CCCNC(=N)N)NC(=O)[C@H](CCCCN)NC(=O)[C@H]([C@@H](C)O)NC(=O)[C@H](Cc2ccc(O)cc2)NC(=O)[C@@H]2C[C@@H](O)CN2C(=O)[C@H](CC(N)=O)NC1=O [GVIA 180] (H-CKS[Hyp]GSSAAN[Hyp]YTKRCY-NH2; disulfide 1-16),123 µM
10,C[C@@H]1NC(=O)[C@H](CO)NC(=O)[C@H](CO)NC(=O)CNC(=O)[C@@H]2C[C@@H](O)CN2C(=O)[C@H](CO)NC(=O)[C@H](CCCCN)NC(=O)[C@@H](N)CSSC[C@@H](C(N)=O)NC(=O)[C@H](C)NC(=O)[C@H](CC(N)=O)NC(=O)[C@H](Cc2ccc(O)cc2)NC(=O)[C@H](CO)NC(=O)[C@H]([C@@H](C)O)NC(=O)[C@@H]2C[C@@H](O)CN2C(=O)[C@H](CO)NC1=O [GVIA 177] (H-CKS[Hyp]GSSAS[Hyp]TSYNAC-NH2; disulfide 1-16),> 1000 µM
11,CC(=O)NCSC[C@@H]1NC(=O)[C@H](CCCCN)NC(=O)[C@H](C)NC(=O)CNC(=O)[C@H](CCCCN)NC(=O)CNC(=O)[C@H](CCCCN)NC(=O)[C@@H](N)CSSC[C@@H](C(N)=O)NC(=O)[C@H](CCCCN)NC(=O)CNC(=O)[C@H](CO)NC(=O)[C@H](CCCNC(=N)N)NC(=O)[C@H](CSCNC(C)=O)NC1=O [MVIIA 162] (H-CKGKGAKC(Acm)C(Acm)RSGKC-NH2; disulfide 1-14),< 1 µM and 0.17 µM
12,C[C@@H]1NC(=O)CNC(=O)[C@H](CCCCN)NC(=O)CNC(=O)[C@H](CCCCN)NC(=O)[C@@H](N)CSSC[C@@H](C(=O)N[C@@H](CO)C(=O)N[C@@H](CCCNC(=N)N)C(N)=O)NC(=O)[C@H](CCCCN)NC1=O [MVIIA 170],< 1 µM and 0.282 µM
